8 molecules from patent US6706733B2, “Quinolinone derivative formulation and its production method” (Dainippon Ink and Chemicals, Inc., priority 1999, dated 2004) can be followed below.

SMILES strings stand for the structures.

The nature of data set [1]: Absorption test in rats (plasma concentration after oral administration). The data set is classed as in vivo, male SD rats. The note with it: for Cmax (maximum plasma concentration): 100 mg/kg single oral administration by gastric tube, suspended in 0.5% aqueous methyl cellulose, plasma by HPLC; for Cmax (maximum plasma concentration) / AUC (area under the plasma concentration vs. time curve): fasted male SD rats; for AUC (area under the plasma concentration vs. time curve): 100 mg/kg single oral administration, trapezoidal equation plus elimination rate constant; for absorption as compared with the α-form crystals: rats, oral 100 mg/kg, regardless of whether crushed or not. As for the experimental part: A comparison of absorption into bodies of rats was conducted for each of the crystal forms and their crushed products of the quinolinone derivative represented with chemical formula (I). Furthermore, each of the crystal forms of the quinolinone derivative represented with chemical formula (I) were crushed using an automated agate mortar.
The following provides an explanation of the test method.
100 mg/kg of each sample were administered orally in a single administration using a gastric tube to 3 male SD rats (age 6 weeks) fasted for 16 hours. The samples were administered after suspending in 0.5% aqueous methyl cellulose solution and preparing to a concentration of […]. Following administration, blood samples were collected over time from the tail vein using heparin-treated glass tubes, and the quinolinone derivative concentrations of the resulting plasma were assayed by HPLC.
The maximum Plasma concentration (Cmax) and area under the plasma concentration vs. time curve (AUC) were determined from the assayed values of the quinolinone derivative at each blood sampling time.
Furthermore, Cmax was determined using measured values, while AUC was determined by calculating according to a trapezoidal equation until the time of measurement, and using the elimination rate constant after that time. The Cmax and AUC of each crystal form of the quinolinone derivative represented with chemical formula (I) are described as comparative examples.

The nature of data set [2]: Photostability test (6 months under direct sunlight, HPLC content). The format is physicochemical. As to conditions: room temperature; for stability with respect to light compared among crystal forms: 6 months direct sunlight; for Residual rate of quinolinone derivative: transparent sealed container, nitrogen, direct sunlight. As for the experimental part:
0.5 g of each of the crystal forms of the quinolinone derivative represented with chemical formula (I) were filled into a transparent and sealed container in a nitrogen atmosphere, and were stored for 6 months under direct sunlight at room temperature.
The content of each crystal form of the quinolinone derivative represented with chemical formula (I) was assayed over time by HPLC followed by a comparison of stability.

Setting [3] is: storage period 0 days (100% prior to storage).

With `CCCCCCCCOc1c(O)c2ccc(NC(=O)/C=C/c3cc(OC)c(O)c(OC)c3)cc2n(C)c1=O` [Crushed α-form crystals], in data set [1], the “Cmax (maximum plasma concentration)” value is 33000 ng/mL and the “AUC (area under the plasma concentration vs. time curve)” value is 253 µg·h/mL.

For the molecule `CCCCCCCCOc1c(O)c2ccc(NC(=O)/C=C/c3cc(OC)c(O)c(OC)c3)cc2n(C)c1=O` [γ-form crystals], the “stability with respect to light compared among crystal forms” value (from here on “stability … compared among crystal forms”) in data set [2] is on record as “relatively stable”. Further, the “Residual rate of quinolinone derivative” value was determined as 100% in data set [2] (setting [3]), 96.5% in data set [2] (storage period 1 month), 84.1% in data set [2] (storage period 6 months) and 98.9% in data set [2] (storage period 15 days). Besides, in data set [1], the “Cmax (maximum plasma concentration)” value was determined as 38000 ng/mL. Further, the “AUC (area under the plasma concentration vs. time curve)” value in data set [1] came out at 325 µg·h/mL. Also, the “absorption as compared with the α-form crystals” value in data set [1] was “superior absorption”.

Take `CCCCCCCCOc1c(O)c2ccc(NC(=O)/C=C/c3cc(OC)c(O)c(OC)c3)cc2n(C)c1=O` [Crushed γ-form crystals]: in data set [1], the “Cmax (maximum plasma concentration)” value stood at 65000 ng/mL and the “AUC (area under the plasma concentration vs. time curve)” value amounted to 575 µg·h/mL.

Take `CCCCCCCCOc1c(O)c2ccc(NC(=O)/C=C/c3cc(OC)c(O)c(OC)c3)cc2n(C)c1=O` [Crushed β-form crystals]: in data set [1], the “Cmax (maximum plasma concentration)” value turned out to be 67000 ng/mL and the “AUC (area under the plasma concentration vs. time curve)” value is 586 µg·h/mL.

As for `CCCCCCCCOc1c(O)c2ccc(NC(=O)/C=C/c3cc(OC)c(O)c(OC)c3)cc2n(C)c1=O` [Crushed δ-form crystals], in data set [1], the “Cmax (maximum plasma concentration)” value came out at 63000 ng/mL and the “AUC (area under the plasma concentration vs. time curve)” value was found to be 597 µg·h/mL.

Turning to `CCCCCCCCOc1c(O)c2ccc(NC(=O)/C=C/c3cc(OC)c(O)c(OC)c3)cc2n(C)c1=O` [α-form crystals], the “stability … compared among crystal forms” value in data set [2] is “relatively stable”. The “Residual rate of quinolinone derivative” value in data set [2] (setting [3]) was 100%; in data set [2] (storage period 1 month), 97.2%; in data set [2] (storage period 6 months), 85.1%; in data set [2] (storage period 15 days), 99.1%. Besides, in data set [1], the “Cmax (maximum plasma concentration)” value is 10000 ng/mL. Moreover, the “AUC (area under the plasma concentration vs. time curve)” value in data set [1] stood at 73 µg·h/mL.

For `CCCCCCCCOc1c(O)c2ccc(NC(=O)/C=C/c3cc(OC)c(O)c(OC)c3)cc2n(C)c1=O` [δ-form crystals], the “stability … compared among crystal forms” value in data set [2] is “extremely unstable”. In addition, the “Residual rate of quinolinone derivative” value in data set [2] (setting [3]) is listed as 100%; in data set [2] (storage period 1 month) it was 91.4%; in data set [2] (storage period 6 months) it was 57.3%; in data set [2] (storage period 15 days), 96.2%. For the same molecule, the “Cmax (maximum plasma concentration)” value in data set [1] is 51000 ng/mL. Further, the “AUC (area under the plasma concentration vs. time curve)” value in data set [1] was found to be 512 µg·h/mL. The “absorption as compared with the α-form crystals” value in data set [1] is listed as “superior absorption”.

Take `CCCCCCCCOc1c(O)c2ccc(NC(=O)/C=C/c3cc(OC)c(O)c(OC)c3)cc2n(C)c1=O` [β-form crystals]: in data set [2], the “stability … compared among crystal forms” value is reported as “relatively stable”. In addition, the “Residual rate of quinolinone derivative” value came out at 100% in data set [2] (setting [3]), 96.8% in data set [2] (storage period 1 month), 84.5% in data set [2] (storage period 6 months) and 98.7% in data set [2] (storage period 15 days). For the same molecule, the “Cmax (maximum plasma concentration)” value in data set [1] was found to be 41000 ng/mL. Moreover, the “AUC (area under the plasma concentration vs. time curve)” value in data set [1] was determined as 375 µg·h/mL. Also, the “absorption as compared with the α-form crystals” value in data set [1] is reported as “superior absorption”.
